Source: patent US6472348B1, “Pyridone derivatives and herbicides” (Kumiai Chemical Industry Co., Ltd., priority 1996, dated 2002)

How the values were obtained:
Format in all cases: in vivo
pale smartweed (Po) = assay: Test Example 3: herbicidal effects by upland field foliage treatment; design: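 grade of growth control; 5 = at least 90%; 4 = 70 to 90%; 3 = 50 to 70%; 2 = 30 to 50%; 1 = 10 to 30%; 0 = under 10%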
Procedure: (§1) (Test on Herbicidal Effects by Upland Field Foliage Treatment)
(§2) In a plastic pot (surface area: 120 cm^2) filled with sand, barnyardgrass (Ec), Diaitaria ciliaris (Di), pale smartweed (Po), slender amaranth (Am), common lambsquarters (Ch) and rice flatsedge (Ci) were sown and covered with soil and were cultured in a green house for 2 weeks. […] The plants were then cultured in the green house, and the evaluation of the herbicidal effects was conducted on the 14th day after the treatment in accordance with the standards as identified in Table 47. Symbol—represents “not tested”.

Diaitaria ciliaris (Di) = assay: as above; design: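 grade of growth control; 5 = at least 90%; 4 = 70 to 90%; 3 = 50 to 70%; 2 = 30 to 50%; 1 = 10 to 30%; 0 = under 10%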
Procedure: as §1, §2

[1] = test system: common lambsquarters (Ch); assay: as above; design: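 grade of growth control; 5 = at least 90%; 4 = 70 to 90%; 3 = 50 to 70%; 2 = 30 to 50%; 1 = 10 to 30%; 0 = under 10%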
Procedure: as §1, §2

rice flatsedge (Ci) = assay: as above; design: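 grade of growth control; 5 = at least 90%; 4 = 70 to 90%; 3 = 50 to 70%; 2 = 30 to 50%; 1 = 10 to 30%; 0 = under 10%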
Procedure: as §1, §2

barnyardgrass (Ec) [2] = assay: as above; design: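 grade of growth control; 5 = at least 90%; 4 = 70 to 90%; 3 = 50 to 70%; 2 = 30 to 50%; 1 = 10 to 30%; 0 = under 10%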
Procedure: as §1, §2

slender amaranth (Am) = assay: as above; design: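 grade of growth control; 5 = at least 90%; 4 = 70 to 90%; 3 = 50 to 70%; 2 = 30 to 50%; 1 = 10 to 30%; 0 = under 10%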
Procedure: as §1, §2

monochoria (Mo) = assay: Test Example 1: herbicidal effects by paddy field soil treatment; details: 100 g of the active ingredient per 10 ares, 21st day after the application, index 0-5 of Table 47;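 note: grade of growth control; 5 = at least 90%; 4 = 70 to 90%; 3 = 50 to 70%; 2 = 30 to 50%; 1 = 10 to 30%; 0 = under 10%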
Procedure: (§3) (Test on Herbicidal Effects by Paddy Field Soil Treatment)
(§4) In a plastic pot (surface area: 100 cm^2) filled with paddy field soil, barnyardgrass (Ec), monochoria (Mo) and bulrush (Sc) were sown after puddling and leveling, and flooded to a water depth of 3 cm. […] The dose was 100 g of the active ingredient per 10 ares. The plants were then cultured in a green house, and the evaluation of the herbicidal effects was conducted on the 21st day after the application in accordance with the standards as identified in Table 47.

bulrush (Sc) = assay: as above; details: 100 g of the active ingredient per 10 ares, 21st day after the application, index 0-5 of Table 47;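 note: grade of growth control; 5 = at least 90%; 4 = 70 to 90%; 3 = 50 to 70%; 2 = 30 to 50%; 1 = 10 to 30%; 0 = under 10%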
Procedure: as §3, §4

barnyardgrass (Ec) [3] = assay: as above; details: 100 g of the active ingredient per 10 ares, 21st day after the application, index 0-5 of Table 47
Procedure: as §3, §4

[4] = 100 g of the active ingredient per 10 ares, evaluated on the 14th day after treatment
[5] = 100 g active ingredient per 10 ares, evaluated 14th day after treatment

Row | Structure (SMILES) | Herbicidal effects Po (pale smartweed (Po); [4]) | Herbicidal effects Di (Diaitaria ciliaris (Di); [4]) | Herbicidal effects Ch [1, 4] | Herbicidal effects Ci (rice flatsedge (Ci); [4]) | Herbicidal effects Ec (barnyardgrass (Ec) [2]; [4]) | Herbicidal effects Am (slender amaranth (Am); [4]) | Herbicidal effects Mo (monochoria (Mo)) | Herbicidal effects Sc (bulrush (Sc)) | Herbicidal effects Ec (barnyardgrass (Ec) [3]) | Herbicidal effects Po (pale smartweed (Po); [5]) | Herbicidal effects Di (Diaitaria ciliaris (Di); [5]) | Herbicidal effects Ch [1, 5] | Herbicidal effects Ci (rice flatsedge (Ci); [5]) | Herbicidal effects Ec (barnyardgrass (Ec) [2]; [5]) | Herbicidal effects Am (slender amaranth (Am); [5])
1 | CCCC(Sc1cc(-c2ccc(C(F)(F)F)n(C)c2=O)ccc1Cl)C(=O)OCC (racemic) [1-116] | 5 | 4 | 5 | 5 | 4 | 5 | – | – | – | – | – | – | – | – | –
2 | CCOC(=O)C(C)Sc1cc(-c2ccc(C(F)(F)F)n(C)c2=O)c(Cl)cc1Cl (racemic) [1-124] | 5 | 5 | 5 | 5 | 5 | 5 | 5 | 5 | 5 | – | – | – | – | – | –
3 | Cn1c(C(F)(F)F)ccc(-c2cc(OCc3ccccc3)c(Cl)cc2F)c1=O [1-23] | – | – | – | – | – | – | 5 | 5 | 5 | – | – | – | – | – | –
4 | CCOC(=O)COc1cc(-c2ccc(C(F)(F)F)n(C)c2=O)c(Cl)cc1Cl [1-33] | 4 | 4 | 5 | 5 | 5 | 5 | 5 | 5 | 5 | – | – | – | – | – | –
5 | Cn1c(C(F)(F)F)ccc(-c2cc(Oc3ccccc3)c(Cl)cc2Cl)c1=O [1-36] | – | – | – | – | – | – | 5 | 5 | 5 | – | – | – | – | – | –
6 | Cn1c(C(F)(F)F)ccc(-c2cc(OC3CCCC3)c(Cl)cc2Cl)c1=O [1-40] | – | – | – | – | – | – | 5 | 5 | 5 | – | – | – | – | – | –
7 | CCOC(=O)CSc1cc(-c2ccc(C(F)(F)F)n(C)c2=O)c(F)cc1Cl [1-45] | 5 | 5 | 5 | 5 | 5 | 5 | 5 | 5 | 5 | – | – | – | – | – | –
8 | COC(=O)CSc1cc(-c2ccc(C(F)(F)F)n(C)c2=O)c(F)cc1Cl [1-46] | 5 | 5 | 5 | 5 | 5 | 5 | 5 | 5 | 5 | – | – | – | – | – | –
9 | Cn1c(C(F)(F)F)ccc(-c2cc(SCC(=O)OC3CCCC3)c(Cl)cc2F)c1=O [1-47] | – | – | – | – | – | – | 5 | 5 | 5 | – | – | – | – | – | –
10 | COCCOC(=O)CSc1cc(-c2ccc(C(F)(F)F)n(C)c2=O)c(F)cc1Cl [1-49] | 5 | 5 | 5 | 5 | 5 | 5 | 5 | 5 | 5 | – | – | – | – | – | –
11 | CCOC(=O)CSc1cc(-c2ccc(C(F)(F)F)n(C)c2=O)c(Cl)cc1Cl [1-53] | – | – | – | – | – | – | 5 | 5 | 5 | – | – | – | – | – | –
12 | COC(=O)CSc1cc(-c2ccc(C(F)(F)F)n(C)c2=O)c(Cl)cc1Cl [1-54] | 4 | 5 | 5 | 5 | 5 | 5 | 5 | 5 | 5 | – | – | – | – | – | –
13 | CCOC(=O)CNc1cc(-c2ccc(C(F)(F)F)n(C)c2=O)c(F)cc1Cl [1-63] | 5 | 5 | 5 | 5 | 5 | 5 | – | – | – | – | – | – | – | – | –
14 | CC(C)=NOC(=O)c1cc(-c2ccc(C(F)(F)F)n(C)c2=O)c(F)cc1Cl [1-68] | 5 | 5 | 5 | 5 | 5 | 5 | 5 | 5 | 5 | – | – | – | – | – | –
15 | COC(=O)C(Cl)Cc1cc(-c2ccc(C(F)(F)F)n(C)c2=O)c(F)cc1Cl (stereo not drawn) [1-70] | 5 | 5 | 5 | 5 | 5 | 5 | 5 | 5 | 5 | – | – | – | – | – | –
16 | Cn1c(C(F)(F)F)ccc(-c2cc(NS(C)(=O)=O)c(Cl)cc2Cl)c1=O [1-75] | – | – | – | – | – | – | 5 | 5 | 5 | – | – | – | – | – | –
17 | Cc1cc(-c2ccc(Cl)cc2Cl)c(=O)[nH]c1C(F)(F)F [1-97] | – | – | – | – | – | – | 5 | 5 | 5 | – | – | – | – | – | –
18 | CCOC(=O)COc1cc(-c2ccc(C(F)(F)F)n(C)c2=O)ccc1Cl [1-107] | – | – | – | – | – | – | 5 | 5 | 5 | – | – | – | – | – | –
19 | Cn1c(C(F)(F)F)ccc(-c2ccc(Cl)c(SCC(=O)OC3CCCC3)c2)c1=O [1-115] | – | – | – | – | – | – | 5 | 5 | 5 | – | – | – | – | – | –

Row | Structure (SMILES) | Herbicidal effects Po (pale smartweed (Po); [4]) | Herbicidal effects Di (Diaitaria ciliaris (Di); [4]) | Herbicidal effects Ch [1, 4] | Herbicidal effects Ci (rice flatsedge (Ci); [4]) | Herbicidal effects Ec (barnyardgrass (Ec) [2]; [4]) | Herbicidal effects Am (slender amaranth (Am); [4]) | Herbicidal effects Mo (monochoria (Mo)) | Herbicidal effects Sc (bulrush (Sc)) | Herbicidal effects Ec (barnyardgrass (Ec) [3]) | Herbicidal effects Po (pale smartweed (Po); [5]) | Herbicidal effects Di (Diaitaria ciliaris (Di); [5]) | Herbicidal effects Ch [1, 5] | Herbicidal effects Ci (rice flatsedge (Ci); [5]) | Herbicidal effects Ec (barnyardgrass (Ec) [2]; [5]) | Herbicidal effects Am (slender amaranth (Am); [5])
20 | CCCCCOC(=O)CSc1cc(-c2ccc(C(F)(F)F)n(C)c2=O)c(Cl)cc1Cl [1-123] | 5 | 5 | 5 | 5 | 4 | 5 | 5 | 5 | 5 | – | – | – | – | – | –
21 | Cn1c(C(F)(F)F)ccc(-c2cc(SCC(=O)O)c(Cl)cc2Cl)c1=O [1-127] | 5 | 5 | 5 | 5 | 4 | 5 | 5 | 5 | 5 | – | – | – | – | – | –
22 | Cn1c(C(F)(F)F)ccc(-c2cc(SC3CCCC3)c(Cl)cc2Cl)c1=O [1-128] | – | – | – | – | – | – | 5 | 4 | 5 | – | – | – | – | – | –
23 | CC(C)OCCOC(=O)CSc1cc(-c2ccc(C(F)(F)F)n(C)c2=O)c(Cl)cc1Cl [1-129] | 5 | 5 | 5 | 5 | 5 | 5 | – | – | – | – | – | – | – | – | –
24 | CCCOC(=O)CSc1cc(-c2ccc(C(F)(F)F)n(C)c2=O)c(Cl)cc1Cl [1-130] | – | – | – | – | – | – | 5 | 5 | 5 | – | – | – | – | – | –
25 | CCOC(=O)COC(=O)c1cc(-c2ccc(C(F)(F)F)n(C)c2=O)c(F)cc1Cl [1-142] | 5 | 5 | 5 | 5 | 5 | 5 | 5 | 5 | 5 | – | – | – | – | – | –
26 | Cn1c(C(F)(F)F)ccc(-c2cc(C(N)=O)c(Cl)cc2F)c1=O [1-145] | 5 | 5 | 5 | 5 | 5 | 5 | 5 | 5 | 5 | – | – | – | – | – | –
27 | Cn1c(C(F)(F)F)ccc(-c2cc(C(=O)NS(C)(=O)=O)c(Cl)cc2F)c1=O [1-147] | – | – | – | – | – | – | 5 | 5 | 5 | – | – | – | – | – | –
28 | COC(=O)Oc1cc(-c2ccc(C(F)(F)F)n(C)c2=O)c(F)cc1Cl [1-153] | – | – | – | – | – | – | 5 | 5 | 5 | – | – | – | – | – | –
29 | Cn1c(C(F)(F)F)ccc(-c2ccc3c(c2)NC(=O)CO3)c1=O [2-30] | – | – | – | – | – | – | 5 | 5 | 5 | – | – | – | – | – | –
30 | Cn1c(C(F)(F)F)ccc(-c2cc(OC3CCCO3)c(Cl)cc2F)c1=O (stereo not drawn) [Compound 1-183] | 5 | 5 | 5 | 5 | 4 | 5 | 5 | 5 | 5 | – | – | – | – | – | –
31 | C=CC(=O)c1cc(-c2ccc(C(F)(F)F)n(C)c2=O)c(F)cc1Cl [Compound 1-198] | – | – | – | – | – | – | 5 | 5 | 5 | 5 | 5 | 5 | 5 | 5 | 5
32 | Cn1c(C(F)(F)F)ccc(-c2cc(OC3CCCO3)c(Cl)cc2Cl)c1=O (stereo not drawn) [Compound 1-212] | – | – | – | – | – | – | 5 | 4 | 5 | – | – | – | – | – | –
33 | Cn1c(C(F)(F)F)ccc(-c2cc3c(cc2F)OCC(=O)N3CC2CO2)c1=O (stereo not drawn) [Compound 2-20] | – | – | – | – | – | – | 5 | 5 | 5 | – | – | – | – | – | –
34 | Cn1cc(-c2ccc(Cl)cc2)c(=O)cc1C(F)(F)F [Compound 6-1] | – | – | – | – | – | – | 5 | 5 | 5 | – | – | – | – | – | –
35 | Cn1c(C(F)(F)F)ccc(-c2cc(O)c(Cl)cc2F)c1=O [Compound No. 1-13] | 5 | 5 | 5 | 5 | 5 | 5 | 5 | 5 | 5 | – | – | – | – | – | –
36 | CCOC(=O)COc1cc(-c2ccc(C(F)(F)F)n(C)c2=O)c(F)cc1Cl [Compound No. 1-19] | 5 | 5 | 5 | 5 | 5 | 5 | 5 | 5 | 5 | – | – | – | – | – | –
37 | CCOC(=O)C(Cl)Cc1cc(-c2ccc(C(F)(F)F)n(C)c2=O)c(F)cc1Cl (stereo not drawn) [Compound No. 1-139, ethyl 2-chloro-3-[2-chloro-4-fluoro-5-(1methyl-6-trifluoromethyl-2(1H)pyridon-3-yl)]phenyl propionate] | 5 | 5 | 5 | 5 | 5 | 5 | – | – | – | – | – | – | – | – | –
